System: hMECs transformed with MECP2
Experiment: growth inhibition of hMECs transformed with MECP2 compared with isogenic cells transformed by activated RAS
Type: cell-based, human
Text: Because MECP2 only binds to methylated CpG sequences and hydroxymethylcytosine, and because data have shown that oncogenic activation of MECP2 depends upon its DNA-binding region, […] it is likely that the oncogenic activity of MECP2 is mediated by binding of the protein to methylated CpG sequences of hydroxymethylated cytosine. For this reason, it was investigated whether DNA methylation inhibitors hinder cell growth in a MECP2-dependent manner. DNA methylation inhibitors prevent the formation of both methylated CpG sequences and hydroxymethylated cytosine.
MECP2 is known to be present in a complex with Class I histone deacetylases. […] This led to investigation of whether MECP2-transformed cells were particularly vulnerable to HDAC inhibitors. […] Furthermore, it was shown that combined treatment with the DNA methylation inhibitor 5-azacytdine and the HDAC inhibitor Trichostatin A is synergistic in a hMEC experimental system.

## CC(/C=C/C(=O)NO)=C\[C@@H](C)C(=O)c1ccc(N(C)C)cc1 [Trichostatin A]
HDAC inhibitor, MECP2-transformed vs activated RAS-transformed isogenic cells
  susceptibility of MECP2-transformed cells relative to isogenic cells transformed by activated RAS: an order of magnitude more susceptible

## Nc1ncn([C@@H]2O[C@H](CO)[C@@H](O)[C@H]2O)c(=O)n1 [5-azacytidine]
DNA methylation inhibitors, MECP2-transformed vs activated RAS-transformed isogenic hMECs
  sensitivity of hMECs transformed with MECP2 relative to isogenic cells transformed by activated RAS: an order of magnitude more sensitive
